Data on nine compounds can be found in patent US20240109917A1 (ACTELION PHARMACEUTICALS LTD, priority 2020, published 2024).

Broadly, the IC50 is the point on the concentration scale where inhibition reaches its midpoint.

Experiment [1] addresses PDGFRβ (Rattus norvegicus (Rat), UniProt Q05030). Put plainly: PDGFRβ Cellular Assay (PDGFRb P-Y751 HTRF in A10 cells stimulated with PDGF-BB). The format is cell-based. As to conditions: read-out: PDGFR Cellular IC50. In short, it runs like this:
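Rat A10 cells, plated overnight, were treated with compound for 3 hours, then stimulated with PDGF-BB (working stock 100 ng/mL in 10% FBS medium). After lysis, PDGFRβ P-Y751 was detected by HTRF.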
For orientation: Time-resolved FRET reads energy transfer from a long-lived donor to a nearby acceptor.

In experiment [2] the target is VEGFR2, unphosphorylated (Homo sapiens (Human), UniProt P35968). The experiment is described as follows: VEGFR ADP GLO Assay. The format is biochemical. In general terms: ADP-Glo first removes unused ATP, then detects ADP through luciferase.
VEGFR2, unphosphorylated, sequence (P35968 20-1356): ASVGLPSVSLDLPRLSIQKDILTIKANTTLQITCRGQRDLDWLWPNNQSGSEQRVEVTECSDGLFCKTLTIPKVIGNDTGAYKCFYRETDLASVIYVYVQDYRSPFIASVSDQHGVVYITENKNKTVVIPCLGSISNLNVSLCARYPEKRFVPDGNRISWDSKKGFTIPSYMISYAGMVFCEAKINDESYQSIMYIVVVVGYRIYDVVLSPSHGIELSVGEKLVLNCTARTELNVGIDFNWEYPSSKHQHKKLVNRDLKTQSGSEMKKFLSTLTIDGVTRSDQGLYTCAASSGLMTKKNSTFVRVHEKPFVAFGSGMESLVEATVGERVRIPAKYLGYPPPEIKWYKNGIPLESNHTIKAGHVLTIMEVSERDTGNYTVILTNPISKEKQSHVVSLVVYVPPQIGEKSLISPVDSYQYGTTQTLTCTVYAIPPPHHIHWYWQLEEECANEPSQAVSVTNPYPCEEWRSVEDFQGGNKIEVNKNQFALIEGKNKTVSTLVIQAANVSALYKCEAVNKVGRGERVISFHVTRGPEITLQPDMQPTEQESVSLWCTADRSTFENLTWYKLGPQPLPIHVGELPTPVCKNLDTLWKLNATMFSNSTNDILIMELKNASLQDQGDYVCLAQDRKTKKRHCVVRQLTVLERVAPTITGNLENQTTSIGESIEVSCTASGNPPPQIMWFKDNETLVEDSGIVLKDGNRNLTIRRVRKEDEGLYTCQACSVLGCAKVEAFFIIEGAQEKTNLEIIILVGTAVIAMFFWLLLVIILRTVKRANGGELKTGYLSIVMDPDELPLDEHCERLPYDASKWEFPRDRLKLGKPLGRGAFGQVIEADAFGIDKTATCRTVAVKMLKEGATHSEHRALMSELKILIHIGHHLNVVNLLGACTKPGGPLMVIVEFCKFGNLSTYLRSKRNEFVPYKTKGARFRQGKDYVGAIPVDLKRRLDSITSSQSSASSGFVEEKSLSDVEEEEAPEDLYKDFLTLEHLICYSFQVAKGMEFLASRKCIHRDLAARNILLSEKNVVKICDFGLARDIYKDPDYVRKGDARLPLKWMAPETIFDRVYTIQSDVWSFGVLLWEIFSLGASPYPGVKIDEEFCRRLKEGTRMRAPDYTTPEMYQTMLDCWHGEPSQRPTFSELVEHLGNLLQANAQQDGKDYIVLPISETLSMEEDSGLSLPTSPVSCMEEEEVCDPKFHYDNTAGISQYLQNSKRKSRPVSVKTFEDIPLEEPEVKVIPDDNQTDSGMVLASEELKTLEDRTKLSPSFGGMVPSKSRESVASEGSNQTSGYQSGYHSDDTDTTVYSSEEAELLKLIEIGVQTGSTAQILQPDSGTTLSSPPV
The target in experiment [3] is Tb-labeled inactive PDGFRβ (Homo sapiens (Human), UniProt P09619). The experiment is described as follows: PDGFRβ LanthaScreen Assay. As to conditions: read-out: PDGFR Lantha IC50. The format is binding.
Tb-labeled inactive PDGFRβ, sequence (P09619 33-1106): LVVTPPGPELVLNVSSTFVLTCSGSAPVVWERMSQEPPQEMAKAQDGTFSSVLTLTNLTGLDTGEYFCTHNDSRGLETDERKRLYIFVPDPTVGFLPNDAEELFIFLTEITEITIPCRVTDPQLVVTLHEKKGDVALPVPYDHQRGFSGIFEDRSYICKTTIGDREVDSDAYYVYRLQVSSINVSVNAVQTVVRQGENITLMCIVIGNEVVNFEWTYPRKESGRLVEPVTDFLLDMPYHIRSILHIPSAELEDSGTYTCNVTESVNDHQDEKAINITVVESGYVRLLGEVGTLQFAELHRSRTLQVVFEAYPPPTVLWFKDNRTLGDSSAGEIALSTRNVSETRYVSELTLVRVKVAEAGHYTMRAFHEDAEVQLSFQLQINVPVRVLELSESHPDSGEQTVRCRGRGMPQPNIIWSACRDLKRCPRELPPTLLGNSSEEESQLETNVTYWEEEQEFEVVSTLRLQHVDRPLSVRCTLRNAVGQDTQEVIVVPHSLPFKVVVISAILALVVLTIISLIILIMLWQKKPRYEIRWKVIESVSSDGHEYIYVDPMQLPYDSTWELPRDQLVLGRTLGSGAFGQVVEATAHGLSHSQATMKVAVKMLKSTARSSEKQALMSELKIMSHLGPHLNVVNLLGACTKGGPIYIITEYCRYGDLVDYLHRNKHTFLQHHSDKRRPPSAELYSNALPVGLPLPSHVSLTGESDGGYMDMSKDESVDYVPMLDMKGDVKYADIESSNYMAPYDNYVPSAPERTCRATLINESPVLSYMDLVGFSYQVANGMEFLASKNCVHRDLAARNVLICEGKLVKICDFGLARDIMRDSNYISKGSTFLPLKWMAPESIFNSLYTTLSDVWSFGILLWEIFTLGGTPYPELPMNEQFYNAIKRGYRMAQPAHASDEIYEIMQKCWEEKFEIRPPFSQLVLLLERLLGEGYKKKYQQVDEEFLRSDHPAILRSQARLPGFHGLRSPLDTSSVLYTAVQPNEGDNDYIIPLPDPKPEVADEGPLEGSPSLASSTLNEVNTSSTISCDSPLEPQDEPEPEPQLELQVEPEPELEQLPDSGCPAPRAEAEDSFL

PDGFRβ, sequence (Q05030 32-1097): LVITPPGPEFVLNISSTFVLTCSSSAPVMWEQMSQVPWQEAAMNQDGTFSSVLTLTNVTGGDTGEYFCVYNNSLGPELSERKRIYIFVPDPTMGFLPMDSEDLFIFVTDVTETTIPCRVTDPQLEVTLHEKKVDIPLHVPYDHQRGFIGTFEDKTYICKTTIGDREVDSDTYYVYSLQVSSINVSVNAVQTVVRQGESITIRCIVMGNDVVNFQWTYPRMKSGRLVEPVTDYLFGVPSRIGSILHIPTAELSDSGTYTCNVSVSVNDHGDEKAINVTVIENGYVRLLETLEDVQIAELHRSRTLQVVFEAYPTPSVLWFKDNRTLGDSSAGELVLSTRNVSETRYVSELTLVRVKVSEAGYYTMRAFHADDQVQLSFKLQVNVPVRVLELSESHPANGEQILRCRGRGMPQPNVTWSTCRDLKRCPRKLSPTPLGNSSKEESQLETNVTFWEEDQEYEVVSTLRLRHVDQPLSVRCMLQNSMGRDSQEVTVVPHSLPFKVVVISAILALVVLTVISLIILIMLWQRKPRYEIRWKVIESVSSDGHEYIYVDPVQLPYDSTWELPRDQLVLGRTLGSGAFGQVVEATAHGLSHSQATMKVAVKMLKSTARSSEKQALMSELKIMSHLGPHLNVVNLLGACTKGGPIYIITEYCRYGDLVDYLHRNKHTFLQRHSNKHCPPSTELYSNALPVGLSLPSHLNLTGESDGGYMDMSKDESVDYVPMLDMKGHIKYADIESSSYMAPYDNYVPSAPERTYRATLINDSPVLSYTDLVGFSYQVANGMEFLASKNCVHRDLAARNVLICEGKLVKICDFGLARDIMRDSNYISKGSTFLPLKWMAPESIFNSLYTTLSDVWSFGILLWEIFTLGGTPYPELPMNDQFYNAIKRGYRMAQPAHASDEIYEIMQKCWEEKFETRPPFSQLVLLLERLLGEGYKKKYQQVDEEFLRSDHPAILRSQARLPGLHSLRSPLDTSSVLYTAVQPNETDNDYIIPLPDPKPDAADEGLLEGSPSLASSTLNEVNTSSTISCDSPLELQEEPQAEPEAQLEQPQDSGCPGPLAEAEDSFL

Regarding `Cc1ncc(C(=O)NCCN2CCCC2(C)C)cc1NC(=O)c1cnn2cc(-n3ncc4cccnc43)sc12` [Example 217, N-(5-((2-(2,2-dimethylpyrrolidin-1-yl)ethyl)carbamoyl)-2-methylpyridin-3-yl)-2-(1H-pyrazolo[3,4-b]pyridin-1-yl)pyrazolo[5,1-b]thiazole-7-carboxamide], the IC50 in experiment [1] is 8.9 nM; in experiment [2] it was over 7500 nM; in experiment [3], 2.5 nM.

For the compound `Cc1ncc(C(=O)NCCN2CCCC2)cc1NC(=O)c1cnn2cc(-c3cn(C)nc3C)sc12` [Example 218, 2-(1,3-Dimethyl-1H-pyrazol-4-yl)-N-(2-methyl-5-((2-(pyrrolidin-1-yl)ethyl)carbamoyl)pyridin-3-yl)pyrazolo[5,1-b]thiazole-7-carboxamide], the half-maximal inhibitory concentration (IC50) in experiment [1] is 78.8 nM; in experiment [2], over 7500 nM; in experiment [3] it was 3.6 nM.

Regarding `Cc1ncc(C(=O)NCCN2CCCC2)cc1NC(=O)c1cnn2cc(-c3cnn(C)c3)sc12` [Example 219, 2-(1-Methyl-1H-pyrazol-4-yl)-N-(2-methyl-5-((2-(pyrrolidin-1-yl)ethyl)carbamoyl)pyridin-3-yl)pyrazolo[5,1-b]thiazole-7-carboxamide], the IC50 in experiment [1] is 123 nM; in experiment [2] it was over 7500 nM; in experiment [3], 14 nM.

As for `Cc1ncc(C(=O)NCCN2CCCC2)cc1NC(=O)c1cnn2cc(-c3cnn(C)c3C)sc12` [Example 220, 2-(1,5-Dimethyl-1H-pyrazol-4-yl)-N-(2-methyl-5-((2-(pyrrolidin-1-yl)ethyl)carbamoyl)pyridin-3-yl)pyrazolo[5,1-b]thiazole-7-carboxamide], the IC50 in experiment [1] was 59 nM; in experiment [2], over 7500 nM; in experiment [3] it was 5 nM.

Consider `Cc1ncc(C(=O)NCCN2CCCC2(C)C)cc1NC(=O)c1cnn2cc(-c3cnn(CCC(O)CO)c3)sc12` (stereo not drawn) [Example 221, 2-(1-(3,4-Dihydroxybutyl)-1H-pyrazol-4-yl)-N-(5-((2-(2,2-dimethylpyrrolidin-1-yl)ethyl)carbamoyl)-2-methylpyridin-3-yl)pyrazolo[5,1-b]thiazole-7-carboxamide], for which the IC50 in experiment [1] is 1710 nM; in experiment [2], over 7500 nM; in experiment [3] it was 7.1 nM.

`Cc1ncc(C(=O)NCCN2CCCC2)cc1NC(=O)c1cnn2cc(-c3cnn(CCC(O)CO)c3)sc12` (stereo not drawn) [Example 222, 2-(1-(3,4-Dihydroxybutyl)-1H-pyrazol-4-yl)-N-(2-methyl-5-((2-(pyrrolidin-1-yl)ethyl)carbamoyl)pyridin-3-yl)pyrazolo[5,1-b]thiazole-7-carboxamide]: the results for the IC50 in experiment [1], in experiment [2] and in experiment [3] were 989 nM, over 7500 nM and 16.5 nM, respectively.

For the compound `Cc1ncc(C(=O)NCCN2CCCC2)cc1NC(=O)c1cnn2cc(-c3c(C)nn(C)c3C)sc12` [Example 223, N-(2-methyl-5-((2-(pyrrolidin-1-yl)ethyl)carbamoyl)pyridin-3-yl)-2-(1,3,5-trimethyl-1H-pyrazol-4-yl)pyrazolo[5,1-b]thiazole-7-carboxamide], the half-maximal inhibitory concentration (IC50) was 69.5 nM in experiment [1], over 833 nM in experiment [2] and 5.7 nM in experiment [3].

As for `Cc1ncc(C(=O)NCCN2CCCC2(C)C)cc1NC(=O)c1cnn2cc(-c3cn(C)nc3CO)sc12` [Example 224, N-(5-((2-(2,2-dimethylpyrrolidin-1-yl)ethyl)carbamoyl)-2-methylpyridin-3-yl)-2-(3-(hydroxymethyl)-1-methyl-1H-pyrazol-4-yl)pyrazolo[5,1-b]thiazole-7-carboxamide], the values for the IC50 in experiment [1], in experiment [2] and in experiment [3] were 903 nM, over 2500 nM and 11.2 nM, respectively.

Turning to `Cc1ncc(C(=O)NCCN2CCCC2)cc1NC(=O)c1cnn2cc(-c3cnn(CC(O)CO)c3)sc12` (stereo not drawn) [Example 225, 2-(1-(2,3-Dihydroxypropyl)-1H-pyrazol-4-yl)-N-(2-methyl-5-((2-(pyrrolidin-1-yl)ethyl)carbamoyl)pyridin-3-yl)pyrazolo[5,1-b]thiazole-7-carboxamide], the 50% inhibitory concentration (IC50) is over 2000 nM in experiment [1], over 7500 nM in experiment [2] and 12.2 nM in experiment [3].
